The test system of the first test is L-phenylserine aldolase. The test is described as follows: Substrate specificity of purified L-phenylserine aldolase under the standard assay conditions. Conditions: compound as substrate.
With `C[C@H](O)[C@H](N)C(=O)O` [L-allo-threonine], the “enzymatic activity to the compound (in words)” value is “low enzymatic activity”. Still for that read-out and setting: under `N[C@@H](CO)C(=O)O` [L-serine] stands “almost no activity”; under `C[C@@H](O)[C@H](N)C(=O)O` [L-threonine], “low enzymatic activity”.

Staying with this test, now noted: compound as substrate; […].
Turning to `N[C@@H](C(=O)O)[C@H](O)c1ccccc1` [D-erythro-phenyl serine], the “activity to the compound” value was “undetectable”. Still for that read-out and setting: under `N[C@@H](C(=O)O)[C@@H](O)c1ccccc1` [D-threo-phenyl serine] stands “undetectable”.

Staying with this test, now noted: compound as substrate; activity to DL-threo-β-phenyl serine taken as 100; purified enzyme, standard assay conditions.
Compound `N[C@@H](C(=O)O)[C@H](O)c1ccccc1` (racemic) [DL-erythro-β-phenyl serine] came in with a Relative activity of 130.

For the compound `N[C@@H](C(=O)O)[C@@H](O)c1ccccc1` (racemic) [DL-threo-β-phenyl serine], the Relative activity came to 100. `CCC(O)C(N)C(=O)O` (racemic) [DL-β-hydroxynorvaline] showed a Relative activity of 0. Still for that read-out and setting: the result for `NCC(O)c1ccccc1` (racemic) [DL-β-hydroxyphenylethylamine] reads 0; that for `C[C@@H](O)[C@@H](N)C(=O)O` [D-allo-threonine], 0; that for `N[C@H](CO)C(=O)O` [D-serine], 0. Same read-out and setting: under `C[C@H](O)[C@@H](N)C(=O)O` [D-threonine] stands 0; under `C[C@H](O)[C@H](N)C(=O)O` [L-allo-threonine], 8.

`O=C(O)[C@@H](O)Cc1ccccc1` [L-phenyllactic acid] showed a Relative activity of 0. `N[C@@H](CO)C(=O)O` [L-serine] gave a Relative activity of 0. On the same count and under the same terms, the result for `C[C@@H](O)[C@H](N)C(=O)O` [L-threonine] reads 2.1. Same read-out and setting: the result for DL-β-thienyl serine reads 170.

In a further test the test system is L-phenylserine aldolase.
Test: not given
It counts as biochemical, Pseudomonas putida biovar A24-1 strain. Particulars: compound as substrate; activity to DL-threo-phenyl serine taken as 100%. As to the method: E. coli JM109 strain was transformed with the plasmid pKK-PSA1 obtained in Example 4. The resulting transformant was inoculated to liquid LB medium (Bacto-tryptone 10 g/l, Bacto-yeast extract 5 g/l, sodium chloride 10 g/l; pH 7.2) containing ampicillin (50 mg/l), and cultured at 30° C. overnight. Then, an aliquot of the culture was inoculated to 2×YT medium (Bacto-tryptone 20 g/l, Bacto-yeast extract 10 g/l, sodium chloride 10 g/l; pH 7.2) containing ampicillin (50 mg/l). The bacterial cells were cultured at 30° C., and then the induction was achieved by treating the cells with 0.1 mM IPTG for 4 hours. The bacterial cells were harvested by centrifugation. The cells were suspended in 100 mM TES-NaOH buffer (pH 7.2) containing 0.02% 2-mercaptoethanol, 2 mM EDTA, and 20 μM pyridoxal-5′-phosphate. The cell suspension was sonicated in a closed sonicator UCD-200™ (Cosmo Bio) for 3 minutes to lyse the bacterial cells. The bacterial cell lysate was centrifuged and the resulting supernatant was used as cell-free extract. The activity of L-phenylserine aldolase was assayed using the cell-free extract. The specific activity was confirmed to be 20.0 U/mg.
When the activity to DL-threo-phenyl serine was taken as 100%, the relative activity was estimated to be 31.3%.
As for `N[C@@H](C(=O)O)[C@H](O)C1CCCCC1` (racemic), the Relative activity is recorded as 31.3%.

Still in this test, the particulars now being: compound as substrate; cell-free extract of Example 5.
Turning to `N[C@@H](C(=O)O)[C@H](O)C1CCCCC1` (racemic), the “enzymatic activity to the substrate” value turned out to be 6.26 U/mg.

The test system of the next test is L-phenylserine aldolase. The test is described as follows: Effect of cations on the activity of L-phenylserine aldolase. It counts as biochemical, Pseudomonas putida biovar A24-1 strain.
Details: not given
The compound `O=S(=O)([O-])[O-].[Cu+2]` [Copper sulfate] showed a Relative activity of 89%. As to `O=S(=O)([O-])[O-].[Fe+2]` [Ferric (II) sulfate], the Relative activity is 91%. On the same count and under the same terms, the result for `[Cl-].[Cl-].[Mg+2]` [Magnesium chloride] reads 98%.

Staying with this test, now noted: compound 0.1 mM, preincubated with enzyme at 30° C. for 10 minutes; […].
Turning to `[Cl][Co][Cl]` [Cobalt chloride], the Relative activity amounted to 98%. The same measure, in the same setting: the result for `[Cl-].[Cl-].[Zn+2]` [Zinc chloride] reads 92%.

The test is the same for the next values; noted with them: compound 0.1 mM, preincubated with enzyme at 30° C. for 10 minutes; activity in the absence of cation taken as 100.
`[Ba+2].[Cl-].[Cl-]` [Barium chloride]: the Relative activity was 90%. On the same count and under the same terms, under Manganese chloride stands 92%.

Still in this test, the particulars now being: compound 50 mM, preincubated with enzyme at 30° C. for 10 minutes; […].
With `Cl.N` [Ammonium chloride], the Relative activity amounted to 92%.

Turning to `[Cl-].[K+]` [Potassium chloride], the Relative activity turned out to be 94%. Still for that read-out and setting: under `[Cl-].[Na+]` [Sodium chloride] stands 88%.

The test is the same for the next values; noted with them: monovalent or divalent cations.
Regarding `N` [ammonium ion], the “activation of the enzyme by cation (in words)” value is on record as “not activated”. Same read-out and setting: the result for `[Mn+2]` [manganese ion] reads “not activated”; that for `[K+]` [potassium ion], “not activated”.

For the origin of these results see patent publication US20060009524A1, “Methods for producing D-beta-hydroxyamino acids” (priority 2004, published 2006).
